Laboratory results: publication PMC9604775, “Bioactive Peptides from Skipjack Tuna Cardiac Arterial Bulbs: Preparation, Identification, Antioxidant Activity, and Stability against Thermal, pH, and Simulated Gastrointestinal Digestion Treatments” (Marine Drugs, 2022)
Where two headings read alike, the source gives them in different places. Where a SMILES comes first, the peptide text is derived from it. Where no end group is shown, it is not given here.

Columns and labels:
[1] = design: method as in 10 sources, ref 24 = [24]; PMID 35127795; doi:10.3389/fnut.2021.813780; 24. Wang J. Wang Y.M. Li L.Y. Chi C.F. Wang B. Twelve antioxidant peptides from protein hydrolysate of Skipjack tuna ( Katsuwonus pelamis ) roe prepared by flavourzyme: Purification, sequence identifi ||| ref 43 = [43]; doi:10.1016/j.foodres.2010.02.009; 43. You L. Zhao M. Regenstein J.M. Ren J. Purification and identification of antioxidant peptides from loach ( Misgurnus anguillicaudatus ) protein hydrolysate by consecutive chromatography and electr ||| ref 44 = [44]; doi:10.1016/j.jff.2015.03.045; 44. Chi C.F. Hu F.Y. Wang B. Li T. Ding G.F. Antioxidant and anticancer peptides from protein hydrolysate of blood clam ( Tegillarca granosa ) muscle J. Funct. Foods 2015 15 301 313 10.1016/j.jff.2015 ||| ref 42 = [42]; PMID 35621976; doi:10.3390/md20050325; 42. Sheng Y. Qiu Y.T. Wang Y.M. Chi C.F. Wang B. Novel antioxidant collagen peptides of Siberian sturgeon ( Acipenser baerii ) cartilages: The preparation, characterization, and cytoprotection of H 2 ||| ref 45 = [45]; PMID 23411302; doi:10.1016/j.foodchem.2012.12.002; 45. Wang B. Li L. Chi C.F. Ma J.H. Luo H.Y. Xu Y.F. Purification and Characterization of a novel antioxidant peptide derived from blue mussel ( Mytilus edulis ) protein hydrolysate Food Chem. 2013 138 ||| ...; settings: literature value; cited from earlier work
[2] = design: method as in 5 sources, ref 41 = [41]; doi:10.1016/j.procbio.2022.01.008; 41. Wang Y.M. Li X.Y. Wang J. He Y. Chi C.F. Wang B. Antioxidant peptides from protein hydrolysate of skipjack tuna milt: Purification, identification, and cytoprotection on H 2 O 2 damaged human umbi ||| ref 44 = [44]; doi:10.1016/j.jff.2015.03.045; 44. Chi C.F. Hu F.Y. Wang B. Li T. Ding G.F. Antioxidant and anticancer peptides from protein hydrolysate of blood clam ( Tegillarca granosa ) muscle J. Funct. Foods 2015 15 301 313 10.1016/j.jff.2015 ||| ref 20 = [20]; doi:10.1016/j.jff.2014.10.027; 20. Chi C.F. Wang B. Wang Y.M. Zhang B. Deng S.G. Isolation and characterization of three antioxidant peptides from protein hydrolysate of bluefin leatherjacket ( Navodon septentrionalis ) heads J. Fu ||| ref 48 = [48]; PMID 31035632; doi:10.3390/md17050251; 48. Yang X.R. Qiu Y.T. Zhao Y.Q. Chi C.F. Wang B. Purification and characterization of antioxidant peptides derived from protein hydrolysate of the marine bivalve mollusk Tergillarca granosa Mar Drugs ||| ref 39 = [39]; PMID 31430875; doi:10.3390/antiox8080318; 39. Zhang L. Zhao G.X. Zhao Y.Q. Qiu Y.T. Chi C.F. Wang B. Identification and active evaluation of antioxidant peptides from protein hydrolysates of skipjack tuna ( Katsuwonus pelamis ) head Antioxida; settings: literature value; cited from earlier work
[3] = design: method as in 10 sources, ref 51 = [51]; doi:10.1016/j.jff.2015.04.042; 51. Cai L. Wu X. Zhang Y. Li X. Ma S. Li J. Purification and characterization of three antioxidant peptides from protein hydrolysate of grass carp ( Ctenopharyngodon idella ) skin J. Funct. Foods 2015 ||| ref 42 = [42]; PMID 35621976; doi:10.3390/md20050325; 42. Sheng Y. Qiu Y.T. Wang Y.M. Chi C.F. Wang B. Novel antioxidant collagen peptides of Siberian sturgeon ( Acipenser baerii ) cartilages: The preparation, characterization, and cytoprotection of H 2 ||| ref 24 = [24]; PMID 35127795; doi:10.3389/fnut.2021.813780; 24. Wang J. Wang Y.M. Li L.Y. Chi C.F. Wang B. Twelve antioxidant peptides from protein hydrolysate of Skipjack tuna ( Katsuwonus pelamis ) roe prepared by flavourzyme: Purification, sequence identifi ||| ref 48 = [48]; PMID 31035632; doi:10.3390/md17050251; 48. Yang X.R. Qiu Y.T. Zhao Y.Q. Chi C.F. Wang B. Purification and characterization of antioxidant peptides derived from protein hydrolysate of the marine bivalve mollusk Tergillarca granosa Mar Drugs ||| ref 43 = [43]; doi:10.1016/j.foodres.2010.02.009; 43. You L. Zhao M. Regenstein J.M. Ren J. Purification and identification of antioxidant peptides from loach ( Misgurnus anguillicaudatus ) protein hydrolysate by consecutive chromatography and electr ||| ...; settings: literature value; cited from earlier work
[4] = design: method as in 10 sources, ref 24 = [24]; PMID 35127795; doi:10.3389/fnut.2021.813780; 24. Wang J. Wang Y.M. Li L.Y. Chi C.F. Wang B. Twelve antioxidant peptides from protein hydrolysate of Skipjack tuna ( Katsuwonus pelamis ) roe prepared by flavourzyme: Purification, sequence identifi ||| ref 55 = [55]; doi:10.1016/j.jff.2016.06.008; 55. Pan X. Zhao Y.Q. Hu F.Y. Wang B. Preparation and identification of antioxidant peptides from protein hydrolysate of skate (Raja porosa) cartilage J. Funct. Foods 2016 25 220 230 10.1016/j.jff.2016 ||| ref 48 = [48]; PMID 31035632; doi:10.3390/md17050251; 48. Yang X.R. Qiu Y.T. Zhao Y.Q. Chi C.F. Wang B. Purification and characterization of antioxidant peptides derived from protein hydrolysate of the marine bivalve mollusk Tergillarca granosa Mar Drugs ||| ref 15 = [15]; doi:10.1016/j.jff.2018.06.014; 15. Zhao W.H. Luo Q.B. Pan X. Chi C.F. Sun K.L. Wang B. Preparation, identification, and activity evaluation of ten antioxidant peptides from protein hydrolysate of swim bladders of miiuy croaker ( Mi ||| ref 47 = [47]; PMID 35531284; doi:10.3389/fmicb.2022.791248; 47. Sun K. Gao M. Wang Y.Z. Li X.R. Wang P. Wang B. Antioxidant peptides from protein hydrolysate of marine red algae Eucheuma cottonii : Preparation, identification, and cytoprotective mechanisms on ||| ...; settings: literature value; cited from earlier work
[5] = Stability to simulated gastrointestinal digestion (DPPH· scavenging activity); type: in vitro ADME; settings: two-stage model: pepsin 120 min then trypsin 120 min; 0 to 240 min; peptide 2.0 mg/mL; read-out DPPH· scavenging activity
Method: The stability of TCP1 to TCP11 from tuna cardiac arterial bulbs was determined according to the previous method with a slight modification. The DPPH· scavenging activity (%) of TCP1 to TCP11 at 2.0 mg/mL were measured at the set conditions to evaluate their stability.
The thermostability of TCP1 to TCP11 at 20, 40, 60, 80, or 100 °C for 60 min was analyzed in water bath. The influences of pH values of 3, 5, 7, 9, or 11 were employed to estimate the acid and alkali stability properties of TCP1 to TCP11 at 25 °C, and the detecting time was set to 60, 120, and 180 min, respectively. The influence of simulate GI digestion on the stability of TCP1 to TCP11 was evaluated by the two-stage digestion model. In short, APs (TCP1 to TCP11) were separately treated with pepsin for 120 min and trypsin for 120 min.

H2O2-damaged HepG2 cells = type: cell-based
Method: The assay was carried out according to the method described by Hu et al., and the H2O2 concentration of 300 µM was applied to establish the oxidative damage model of HepG2 cells. Briefly, the HepG2 cells with density of 1 × 10^5 cells/well were incubated in a 96-well plate for 24 h. The supernatant in the 96-well plate was aspirated and 100 µL of peptide samples (50.0, 100.0, or 200.0 µM, respectively) were added into the protection groups respectively for incubating 8 h. After removing peptides, H2O2 with the final concentration of 300 µM was joined in the protection and model groups. After incubating for 24 h, the wells were rinsed twice with PBS and the MTT with the final concentration of 0.5 mg/mL was added into. After incubating for 4 h, the formazan crystals formed by active cells were soluble in 150 µL of DMSO and OD570 nm of the solution was determined. Finally, the cell viability was calculated using the equation: Cell viability = (ODsample/ODcontrol) × 100%(2)

[6] = peptide 200 μmol/L, 8 h pre-incubation, then 300 µM H2O2 for 24 h, MTT, model group 50.64 ± 2.43%, mean ± SD, n = 3

Row | Compound | EC50 ABTS^+· [2] [µg/mL] | Declined percentage of DPPH· scavenging activity after simulated GI digestion [5] [%] | also measured
1 | WPPD [literature antioxidant peptide from blood cockle (T. granosa)] | 540 |  | EC50 DPPH· [1]: 360 µg/mL; EC50 HO· [3]: 380 µg/mL; EC50 O2^−· [4]: 460 µg/mL
2 | GEGQR [TCP8, Gly-Glu-Gly-Gln-Arg] |  | 4.21 | 
3 | GDRGD [TCP11, Gly-Asp-Arg-Gly-Asp] |  | 2.65 | 
4 | YEGGD [TCP6, Tyr-Glu-Gly-Gly-Asp] |  |  | viability of H2O2-damaged HepG2 cells (H2O2-damaged HepG2 cells; [6]): 74.68 ± 1.69%
5 | GPGLM [TCP9, Gly-Pro-Gly-Leu-Met] |  |  | viability of H2O2-damaged HepG2 cells (H2O2-damaged HepG2 cells; 8 h, 200 μmol/L): 78.54 ± 3.06%
6 | YGPM [literature antioxidant peptide from Scomberomorous niphonius skins] | 820 |  | EC50 O2^−· [4]: 730 µg/mL
7 | NCCCC[C@H](NC(=O)[C@H](CCCCN)NC(=O)[C@@H]1CCCN1)C(=O)O [TCP3, Pro-Lys-Lys] (H-Pro-Lys-Lys-OH) |  |  | viability of H2O2-damaged HepG2 cells (H2O2-damaged HepG2 cells; 8 h, 200 μmol/L): 81.26 ± 1.86%
8 | GEQSN [TCP2, Gly-Glu-Gln-Ser-Asn] |  | 4.49 | 
9 | SVTEV [literature antioxidant peptide from tuna milts] | 1020 |  | EC50 DPPH· [1]: 890 µg/mL
10 | GVPLT [literature antioxidant peptide from Navodon septentrionalis heads] | 3124 |  | 
11 | CC(C)C[C@H](NC(=O)CN)C(=O)N[C@@H](CC(N)=O)C(=O)O [TCP10, Gly-Leu-Asn] (H-Gly-Leu-Asn-OH) |  | 3.15 | 
12 | VRDQY [literature antioxidant peptide from tuna milts] | 1040 |  | EC50 DPPH· [1]: 880 µg/mL
13 | GHHAAA [literature antioxidant peptide from tuna milts] | 1120 |  | 
14 | CC(=O)N[C@@H](CS)C(=O)O [N-Acetyl-L-Cysteine (NAC), N-Acetyl-L-Cysteine] |  |  | viability of H2O2-damaged HepG2 cells (H2O2-damaged HepG2 cells; [6]): 90.06 ± 3.16%
15 | GEEGD [TCP5, Gly-Glu-Glu-Gly-Asp] |  | 4.25 | 
